≈ marks a conversion by molar mass, not a printed value. Read-outs that look alike come from different tables or passages of the source.
Tests used:
Type in all cases: cell-based
[1] = test system: Propionibacterium acnes MTCC 1951; test: Minimum inhibitory concentration; conditions: for MIC: Cutibacterium acnes
[2] = test system: Staphylococcus aureus ATCC 6538S; test: Minimum inhibitory concentration; conditions: for MIC: ATCC6538S
[3] = test system: Aspergillus niger ATCC 16404; test: Minimum inhibitory concentration
[4] = test system: Bacillus subtilis ATCC 9372; test: microbe, parasite or virus in culture; conditions: for MIC: ATCC9372
[5] = test system: Malassezia furfur MTCC 1374; test: Minimum inhibitory concentration
[6] = test system: Escherichia coli ATCC 10142; test: Minimum inhibitory concentration
[7] = test system: Pseudomonas aeruginosa Immuno type IV; test: Minimum inhibitory concentration
[8] = test system: all types of microbes (Gram positive, Gram negative bacteria, yeast and mould; the chosen eight organisms); test: Minimum inhibitory concentration, whole panel
[9] = test system: Candida albicans ATCC 10231; test: Minimum inhibitory concentration
[10] = Bacillus subtilis ATCC 9372, read-out: MINIMUM INHIBITORY CONCENTRATION
[11] = in Preservative Blend No 1 (10:10:80), Bacillus subtilis, read-out: Concentration of individual component at MIC of Preservative Blend No 1

C=CCCCCCCCCC(=O)NCCO [Undecylenoyl MEA amide, N-undecylenoyl monoethanol amide] was tested, and the “MINIMUM INHIBITORY CONCENTRATION” value ([1]; Propionibacterium acnes MTCC 1951) was >10000 ppm, the “Concentration of individual component at MIC of Preservative Blend No 1” value (“Concentration … of Preservative Blend No 1” for short) ([1]; in Preservative Blend No 1 (10:10:80), Propionibacterium acnes) was 300 ppm and the “Concentration of individual component at MIC of Preservative Blend No 2” value (shortened to “Concentration … of Preservative Blend No 2”) ([1]; in Preservative Blend No 2 (10:10:80), Propionibacterium acnes) was 200 ppm. The “MINIMUM INHIBITORY CONCENTRATION” value ([2]; Staphylococcus aureus ATCC 6538S) was >10000 ppm, the “Concentration … of Preservative Blend No 1” value ([2]; in Preservative Blend No 1 (10:10:80), Staphylococcus aureus) was 200 ppm and the “Concentration … of Preservative Blend No 2” value ([2]; in Preservative Blend No 2 (10:10:80), Staphylococcus aureus) was 300 ppm. For the same molecule, the “MINIMUM INHIBITORY CONCENTRATION” value ([3]; Aspergillus niger) was >10000 ppm, the “Concentration … of Preservative Blend No 1” value ([3]; in Preservative Blend No 1 (10:10:80); Aspergillus niger) was 300 ppm and the “Concentration … of Preservative Blend No 2” value ([3]; in Preservative Blend No 2 (10:10:80); Aspergillus niger) was 200 ppm. The “MINIMUM INHIBITORY CONCENTRATION” value ([4]; Bacillus subtilis ATCC 9372) was >10000 ppm, the “Concentration … of Preservative Blend No 1” value ([4]; in Preservative Blend No 1 (10:10:80), Bacillus subtilis) was 200 ppm and the “Concentration … of Preservative Blend No 2” value ([4]; in Preservative Blend No 2 (10:10:80), Bacillus subtilis) was 200 ppm. The “MINIMUM INHIBITORY CONCENTRATION” value ([5]; Malassezia furfur MTCC 1374) was >10000 ppm, the “Concentration … of Preservative Blend No 1” value ([5]; in Preservative Blend No 1 (10:10:80), Malassezia furfur) was 400 ppm and the “Concentration … of Preservative Blend No 2” value ([5]; in Preservative Blend No 2 (10:10:80), Malassezia furfur) was 400 ppm. The “MINIMUM INHIBITORY CONCENTRATION” value ([6]; Escherichia coli ATCC 10142) was >10000 ppm, the “Concentration … of Preservative Blend No 1” value ([6]; in Preservative Blend No 1 (10:10:80), Escherichia coli) was 200 ppm and the “Concentration … of Preservative Blend No 2” value ([6]; in Preservative Blend No 2 (10:10:80), Escherichia coli) was 300 ppm. The “MINIMUM INHIBITORY CONCENTRATION” value ([7]; Pseudomonas aeruginosa Immuno type IV) was >10000 ppm, the “Concentration … of Preservative Blend No 1” value ([7]; in Preservative Blend No 1 (10:10:80), Pseudomonas aeruginosa) was 200 ppm and the “Concentration … of Preservative Blend No 2” value ([7]; in Preservative Blend No 2 (10:10:80), Pseudomonas aeruginosa) was 300 ppm. For the same molecule, the “Concentration needed for activity of the ingredient by itself against the broad range of microbes” value ([8]; ingredient alone, octanoyl glycine tested at neutral pH) was > 10000 ppm, the “Antimicrobial activity of the ingredient alone” value ([8]; up to 1.0% concentration, bacteria, yeast and mould) was “does not exhibit any antimicrobial activity” and the “MINIMUM INHIBITORY CONCENTRATION” value ([9]; Candida albicans ATCC 10231) was >10000 ppm. For the same molecule, the “Concentration … of Preservative Blend No 1” value ([9]; in Preservative Blend No 1 (10:10:80), Candida albicans) was 300 ppm and the “Concentration … of Preservative Blend No 2” value ([9]; in Preservative Blend No 2 (10:10:80), Candida albicans) was 200 ppm.

OCCOc1ccccc1 [Phenoxy ethanol, 2-Phenoxy ethanol] showed an MIC ([1]; MTCC1951, read-out: Concentration of individual component at MIC of Preservative Blend No 1) of 2400 µg/mL, an MIC ([1]; MTCC1951, read-out: Concentration of individual component at MIC of Preservative Blend No 2) of 1600 µg/mL and an MIC ([1]; MTCC1951, read-out: MINIMUM INHIBITORY CONCENTRATION) of 4000 µg/mL (≈ 29 mM). The MIC ([2]; Staphylococcus aureus, read-out: Concentration of individual component at MIC of Preservative Blend No 1) was 1600 µg/mL, the MIC ([2]; Staphylococcus aureus, read-out: Concentration of individual component at MIC of Preservative Blend No 2) was 2400 µg/mL and the MIC ([2]; Staphylococcus aureus, read-out: MINIMUM INHIBITORY CONCENTRATION) was 8500 µg/mL (≈ 61.5 mM). For the same molecule, the MIC ([3]; Aspergillus niger, ATCC16404, read-out: Concentration of individual component at MIC of Preservative Blend No 1) was 2400 µg/mL, the MIC ([3]; Aspergillus niger, ATCC16404, read-out: Concentration of individual component at MIC of Preservative Blend No 2) was 1600 µg/mL and the MIC ([3]; Aspergillus niger, ATCC16404, read-out: MINIMUM INHIBITORY CONCENTRATION) was 9000 µg/mL (≈ 65.1 mM). For the same molecule, the “Concentration enough to kill the organism in combination with components [A] and [B]” value ([3]; in Preservative Blend No 1; Aspergillus) was “around 0.25%”, the MIC [4, 10] was 4000 µg/mL (≈ 29 mM) and the MIC [4, 11] was 1600 µg/mL. It also gave an MIC ([4]; in Preservative Blend No 2 (10:10:80), Bacillus subtilis, read-out: Concentration of individual component at MIC of Preservative Blend No 2) of 1600 µg/mL, an MIC ([5]; Malassezia furfur, MTCC1374, read-out: Concentration of individual component at MIC of Preservative Blend No 1) of 3200 µg/mL and an MIC ([5]; Malassezia furfur, MTCC1374, read-out: Concentration of individual component at MIC of Preservative Blend No 2) of 3200 µg/mL. For the same molecule, the MIC ([5]; Malassezia furfur, MTCC1374, read-out: MINIMUM INHIBITORY CONCENTRATION) was 4000 µg/mL (≈ 29 mM), the MIC ([6]; Escherichia coli, ATCC10142, read-out: Concentration of individual component at MIC of Preservative Blend No 1) was 1600 µg/mL and the MIC ([6]; Escherichia coli, ATCC10142, read-out: Concentration of individual component at MIC of Preservative Blend No 2) was 2400 µg/mL. It also gave an MIC ([6]; Escherichia coli, ATCC10142, read-out: MINIMUM INHIBITORY CONCENTRATION) of 6000 µg/mL (≈ 43.4 mM), an MIC ([7]; Pseudomonas aeruginosa, read-out: Concentration of individual component at MIC of Preservative Blend No 1) of 1600 µg/mL and an MIC ([7]; Pseudomonas aeruginosa, read-out: Concentration of individual component at MIC of Preservative Blend No 2) of 2400 µg/mL. The MIC ([7]; Pseudomonas aeruginosa, read-out: MINIMUM INHIBITORY CONCENTRATION) was 4000 µg/mL (≈ 29 mM), the “Activity against yeast and mould” value ([8]; ingredient alone, Aspergillus and Candida) was “virtually no activity” and the Activity against bacteria ([8]; ingredient alone, particularly Gram positive) was “weak activity”. The MIC ([9]; Candida albicans, ATCC10231, read-out: Concentration of individual component at MIC of Preservative Blend No 1) was 2400 µg/mL, the MIC ([9]; Candida albicans, ATCC10231, read-out: Concentration of individual component at MIC of Preservative Blend No 2) was 1600 µg/mL and the MIC ([9]; Candida albicans, ATCC10231, read-out: MINIMUM INHIBITORY CONCENTRATION) was 6000 µg/mL (≈ 43.4 mM). For the same molecule, the “Concentration enough to kill the organism in combination with components [A] and [B]” value ([9]; in Preservative Blend No 1, Candida) was “around 0.25%”.

CCCCCCCC(=O)NCC(=O)O [Octanoyl Glycine, N-Octanoyl glycine] gave an MIC ([1]; MTCC1951, Propionibacterium acnes MTCC 1951, read-out: MINIMUM INHIBITORY CONCENTRATION) of 3000 µg/mL (≈ 14.9 mM), an MIC ([1]; MTCC1951, in Preservative Blend No 1 (10:10:80), Propionibacterium acnes, read-out: Concentration of individual component at MIC of Preservative Blend No 1) of 300 µg/mL and an MIC ([2]; Staphylococcus aureus ATCC 6538S, read-out: MINIMUM INHIBITORY CONCENTRATION) of 3000 µg/mL (≈ 14.9 mM). The MIC ([2]; in Preservative Blend No 1 (10:10:80), Staphylococcus aureus, read-out: Concentration of individual component at MIC of Preservative Blend No 1) was 200 µg/mL, the MIC ([3]; ATCC16404; in Preservative Blend No 1 (10:10:80); Aspergillus niger; read-out: Concentration of individual component at MIC of Preservative Blend No 1) was 300 µg/mL and the MIC ([3]; Aspergillus niger, ATCC16404; read-out: MINIMUM INHIBITORY CONCENTRATION) was 4000 µg/mL (≈ 19.9 mM). It also gave an MIC [4, 10] of 3000 µg/mL (≈ 14.9 mM), an MIC [4, 11] of 200 µg/mL and an MIC ([5]; MTCC1374, Malassezia furfur MTCC 1374, read-out: MINIMUM INHIBITORY CONCENTRATION) of 3000 µg/mL (≈ 14.9 mM). It also gave an MIC ([5]; MTCC1374, in Preservative Blend No 1 (10:10:80), Malassezia furfur, read-out: Concentration of individual component at MIC of Preservative Blend No 1) of 400 µg/mL, an MIC ([6]; ATCC10142, Escherichia coli ATCC 10142, read-out: MINIMUM INHIBITORY CONCENTRATION) of 3000 µg/mL (≈ 14.9 mM) and an MIC ([6]; ATCC10142, in Preservative Blend No 1 (10:10:80), Escherichia coli, read-out: Concentration of individual component at MIC of Preservative Blend No 1) of 200 µg/mL. The MIC ([7]; Pseudomonas aeruginosa Immuno type IV, read-out: MINIMUM INHIBITORY CONCENTRATION) was 3000 µg/mL (≈ 14.9 mM), the MIC ([7]; in Preservative Blend No 1 (10:10:80), Pseudomonas aeruginosa, read-out: Concentration of individual component at MIC of Preservative Blend No 1) was 200 µg/mL and the MIC ([9]; ATCC10231, Candida albicans ATCC 10231, read-out: MINIMUM INHIBITORY CONCENTRATION) was 4000 µg/mL (≈ 19.9 mM). It also gave an MIC ([9]; ATCC10231, in Preservative Blend No 1 (10:10:80), Candida albicans, read-out: Concentration of individual component at MIC of Preservative Blend No 1) of 300 µg/mL.

Source: US20130101530A1, “ANTIMICROBIAL PRESERVATIVE COMPOSITIONS FOR PERSONAL CARE PRODUCTS” (GALAXY SURFACTANTS LTD., priority 2011, published 2013)
